According to PMC3523108 (European biophysics journal : EBJ, 2009):

Biological target: bovine serum albumin (BSA) (Bos taurus, UniProt P02769)
Assay type: binding
Settings: slope of log((F0−F)/F) vs log[Q], Eq. 2; sensitizer 10^−6–7 × 10^−6 M

bovine serum albumin (BSA), sequence (P02769 25-607): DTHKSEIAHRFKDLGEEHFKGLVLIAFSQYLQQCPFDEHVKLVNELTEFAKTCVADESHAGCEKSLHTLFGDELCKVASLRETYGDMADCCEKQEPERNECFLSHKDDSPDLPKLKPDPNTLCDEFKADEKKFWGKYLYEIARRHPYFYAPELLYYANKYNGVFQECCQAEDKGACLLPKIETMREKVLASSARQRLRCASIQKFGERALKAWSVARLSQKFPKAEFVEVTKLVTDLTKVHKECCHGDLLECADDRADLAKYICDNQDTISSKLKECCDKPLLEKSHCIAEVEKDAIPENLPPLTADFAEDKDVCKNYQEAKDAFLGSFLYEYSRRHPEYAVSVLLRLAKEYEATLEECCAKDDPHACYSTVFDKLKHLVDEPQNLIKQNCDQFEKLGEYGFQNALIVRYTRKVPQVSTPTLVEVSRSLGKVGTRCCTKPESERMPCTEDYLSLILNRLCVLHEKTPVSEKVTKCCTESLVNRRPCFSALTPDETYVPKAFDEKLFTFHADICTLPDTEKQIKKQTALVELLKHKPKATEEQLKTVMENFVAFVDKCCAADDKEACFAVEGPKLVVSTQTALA

SMILES: C=CC1=C(C)c2cc3[nH]c(cc4nc(cc5[nH]c(cc1n2)c(C)c5CCC(=O)O)C(CCC(=O)O)=C4C)c(C)c3C=C [PP3, Protoporphyrin IX]
- n (number of binding sites in BSA): 0.993 ± 0.082
